Measurements as given in US20100015240A1, “PROCESS FOR PREPARING MICROPARTICLES CONTAINING BIOACTIVE PEPTIDES” (priority 2008, published 2010).

Experiment: Peptide solubility in polyols estimated by visual observation of solutions
Format: physicochemical
Settings: solvent propylene glycol
From the text: Solubilities at various concentration ranges were estimated based on visual observations of solutions prepared at the indicated peptide concentration levels listed in Table II.

Measured: Peptide solubility at specified concentration level

C[C@@H](O)[C@@H]1NC(=O)[C@H](CCCCN)NC(=O)[C@@H](Cc2c[nH]c3ccccc23)NC(=O)[C@H](Cc2ccccc2)NC(=O)[C@@H](NC(=O)[C@H](N)Cc2ccccc2)CSSC[C@@H](C(=O)N[C@H](CO)[C@@H](C)O)NC1=O [Octreotide]
Soluble: 100 mg/mL | <10 mg/mL | at 10 mg/mL
